What was measured:
[1] = Inhibition of Met-mediated tumorigenesis in HGF-stimulated human HepG2 cells assessed as impairment in anchorage-independent growth by soft agar growth assay
[2] = Inhibition of Met-mediated tumorigenesis in HGF-stimulated human GTL16 cells assessed as impairment in anchorage-independent growth by soft agar growth assay
[3] = Inhibition of Met-mediated scattering in HGF-stimulated […] cells pre-incubated overnight prior to HGF stimulation for 24 hrs measured after 24 to 48 hrs
[4] = Inhibition of TPR-fused MET-mediated mouse BA/F3 cell proliferation after 48 hrs by cell titre blue based spectrophotometry

| IC50 [1] [nM] | IC50 [2] [nM] | IC50 [3] [nM] | IC50 [4] [nM] | Compound |
| --- | --- | --- | --- | --- |
| 1560 | 228 | 152 |  | Cc1[nH]c(/C=C2\C(=O)Nc3ccc(S(=O)(=O)N(C)c4cccc(Cl)c4)cc32)c(C)c1C(=O)N1CCN(C)CC1 [(3Z)-N-(3-CHLOROPHENYL)-3-({3,5-DIMETHYL-4-[(4-METHYLPIPERAZIN-1-YL)CARBONYL]-1H-PYRROL-2-YL}METHYLENE)-N-METHYL-2-OXOINDOLINE-5-SULFONAMIDE] |
| 321 | 811 | 171 | 4000 | O=C(Cc1cc(C(F)(F)F)cc(C(F)(F)F)c1)N[C@@H](Cc1ccccc1)C(=O)Nc1ccc(-c2cn3c(n2)sc2ccccc23)cc1 |
| 620 | 1190 | 206 |  | O=C(Cc1cc(C(F)(F)F)cc(C(F)(F)F)c1)N[C@H](Cc1ccccc1)C(=O)Nc1ccc(-c2cn3c(n2)sc2ccccc23)cc1 |

Source: BindingDB's records for doi:10.1016/j.ejmech.2011.10.051 (University of The Mediterranean, 2012)
